Structures can show the parent of a compound that is named as a salt.
Target: Vps35 (retromer core complex Vps35–Vps29–Vps26) (Homo sapiens, UniProt Q96QK1+Q9UBQ0)
Assay: microscale thermophoresis
Assay type: binding

Q: With `N=C(N)SCc1ccc(CSC(=N)N)s1` [compound 1, thiophene-2,5-diylbis(methylene) dicarbamimidothioate dihydrochloride] as the compound, how does the Kd read?
A: ~5 µM

— publication PMC4076047 (Nature chemical biology, 2014)
